From patent US20190161516A1, “PROTEASOME INHIBITORS” (University of Kentucky Research Foundation, priority 2017, published 2019) come the findings set out here.

Molecules are shown by their SMILES.

One test has as its system COX-2. Description: COX-2 expression by immunohistochemical analysis of hippocampal tissues. Format: in vivo. As to conditions: hippocampal tissues from APPsw mouse, FIG. 11A right panel. As to the method:
To directly verify the role of LMP2 in neuroinflammation pathways, we measured the expression of COX-2 by immunohistochemical analysis of hippocampal tissues from APPsw mouse.
Frozen tissues were cut into 30 μm thick sections and stored free floating in cryoprotectant solution (30% ethylenglycol, 20% glycerol, 50 mM sodium phosphate buffer, pH 7.4) at 4° C. until further use. For immunohistological staining, sections were rinsed in 1×PBS, incubated in blocking buffer (1×PBS containing 0.3% Triton X-100 and 10% normal goat serum) for 1 hr at room temperature and primary antibodies for GFAP (1:1000; Abcam) and Iba-1 (1:500; Abcam) were diluted in 1×PBS/0.3% triton X-100/5% normal goat serum and incubated over night at 4° C. Sections were washed with 1×PBS to wash off excessive primary antibodies, incubated with species specific peroxidase-coupled secondary antibodies (goat anti-mouse or goat anti-rabbit (1:300, Abcam)) diluted in 1×PBS/0.3% Triton X-100/5% normal goat serum and incubated for 1 h on a shaker at RT before developed with liquid diaminobezadine (DAB) (Dako, K3647). Sections were counterstained with matured hematoxylin, followed by dehydration in an ascending alcohol series before covered using Roti®-Histokitt II mounting medium. […] Fluorescence imaging was performed using an Olympus XM10 monochrome fluorescence CCD camera (Olympus, Germany).

Test [1] concerns Chymotrypsin-like activity (β5/β5i). Description: Proteasome inhibitory activity, subunit-specific cell lysate IC50, chymotrypsin-like activity. Format: biochemical.
The test system of test [2] is reactive astrocytes and microglia. Description: Immunohistochemical analysis of hippocampal tissues (GFAP, Iba1). Format: in vivo, mouse. The source says: Activation of neuroglia is closely linked to neuroinflammation, which is reported to be one of major factors involved in the development and progression of AD. Therefore, we set out to investigate whether LMP2 inhibitors could block the activation of astrocytes and microglia. We performed immunohistochemical analysis of hippocampal tissues isolated from the brains of both APPsw and LPS-induced mice, using GFAP and Iba1 as standard markers for reactive astrocytes and microglial, respectively.
Frozen tissues were cut into 30 μm thick sections and stored free floating in cryoprotectant solution (30% ethylenglycol, 20% glycerol, 50 mM sodium phosphate buffer, pH 7.4) at 4° C. until further use. For immunohistological staining, sections were rinsed in 1×PBS, incubated in blocking buffer (1×PBS containing 0.3% Triton X-100 and 10% normal goat serum) for 1 hr at room temperature and primary antibodies for GFAP (1:1000; Abcam) and Iba-1 (1:500; Abcam) were diluted in 1×PBS/0.3% triton X-100/5% normal goat serum and incubated over night at 4° C. […] Fluorescence imaging was performed using an Olympus XM10 monochrome fluorescence CCD camera (Olympus, Germany).

Test [3] deals with Aβ deposition in APPsw mouse brain. Nature of the test: Aβ in hippocampal tissues by ELISA and Thioflavin T staining. As to conditions: versus APPsw control, FIG. 9. Format: in vivo. The text has this:
Given the data showing improved learning and memory of LMP2 inhibitor-treated mice and the role of Aβ deposition in memory dysfunction, we suspected that LMP2 inhibitors promote Aβ clearance in the brain of APPsw mice. To test this, we measured the expression levels of Aβ in hippocampal tissues isolated from the brains of APPsw mouse, using a ELISA-based assay and Thioflavin T (ThT) staining. […] Taken together, it appears that LMP2 inhibitors exert its anti-AD efficacy in these animal models independent of Aβ deposition. […] As a result, tau protein has become a prominent target for developing disease-modifying drugs. Given this, we wondered whether LMP2 inhibitors could block tau aggregation. To test this, we used HEK293-tau-BiFC cells to monitor the impacts of LMP2 inhibitors on tau aggregation.
Aβ1-42 levels were determined using specific ELISA Kit (Cusabio Biotech Co., Ltd., Wilmington, Del., USA). Experiments were performed according to each manufacturer's instructions. In brief, samples and standards were added into the pre-coated plate and incubated for 2 hours at 37° C. […] The absorbance was measured at 450 nm using a microplate reader (Sunrise™, TECAN, Switzerland) after adding stop solution.
Frozen brain tissues were cut into 30 μm sections by using cryostat microtome (Leica CM1850; Leica Microsystems). […] The Thioflavin T staining was examined by using a fluorescence microscope.
A general note: An ELISA detects its analyte on a solid surface through an enzyme-linked reagent.

In another test the target is T1, X/β5 (Homo sapiens, UniProt P20618+P28074).
T1 construct: purchased R&D Systems
Nature of the test: Proteasome activity assay, purified 20S proteasome, Ac-WLA-AMC. The format is biochemical. As to the method:
Purified 20S human proteasomes (CP and IP, R&D Systems) were used to assess the in vitro inhibition of proteasome catalytic activity by LMP2 inhibitors. In our 96-well format assays involving a 100 μL total volume, 20S proteasomes (0.5 μg/mL) were incubated with inhibitors or reference compounds (e.g., carfilzomib) in assay buffer (20 mM Tris-HCl, 0.5 mM EDTA, 0.035% SDS) at room temperature for 30 min. Reactions were initiated by the addition of fluorogenic substrates containing the AMC (7-amino-4-methylcoumarin) group. Specifically, the following substrates were used: Suc-LLVY-AMC (CT-L activity, 100 μM), Ac-PAL-AMC (LMP2, 100 μM), Ac-WLA-AMC (β5, 20 μM), Ac-nLPnLD-AMC (β1,100 μM), Ac-RLR-AMC (β2/2i, 20 μM), and Ac-ANW-AMC (β5i, 100 μM). The fluorescence of liberated AMC was measured over a period of 90 min at 360 and 460 nm on a SpectraMax M5 fluorescence plate reader (Molecular Devices). For the proteasome activity of brain tissues isolated from AD mice, tissues were homogenized in RIPA buffer (50 mM Tris Cl, pH 7.4, 150 mM NaCl, 5 mM EDTA, 1% Nonidet P-40, 1% sodium deoxycholate, 0.1% SDS, 1% aprotinin, 50 mM NaF) and sonicated. Samples were centrifuged for 40 min at 14,000×g (4° C.). Protein concentration was determined using the Bradford Assay according to the manufacturer's protocol. […] Fluorescence was recorded for 90 min using a Synergy-HT (Bio Tek) plate reader.

On to `CC(=O)NCC(=O)N1CCC[C@H]1C(=O)N[C@@H](Cc1ccccc1)C(=O)N[C@@H](CC(C)C)C(=O)[C@@]1(C)CO1` [YU102], for which, in the test on COX-2, the COX-2 upregulation result was “significantly curtails COX-2 upregulation”. The IC50 (in test [1]; on X/β5) was more than 10 µM throughout. Besides, in test [2] (GFAP, FIG. 11A), the activation of astrocytes entry is “inhibits activation of astrocytes”. Further, the activation of microglia entry in test [2] (Iba1, FIG. 11B) is reported as “inhibits activation of microglia”. The Aβ deposition entry in test [3] was “no difference in Aβ deposition”.

One may read the IC50 as the midpoint of a concentration-inhibition curve.
